Laboratory results published in US9815851B2, “Pyrrolo carboxamides as modulators of orphan nuclear receptor RAR-related orphan receptor-gamma (RORγ, NR1F3) activity and for the treatment of chronic inflammatory and autoimmune diseases” (PHENEX PHARMACEUTICALS AG, priority 2011, dated 2017).
Like-named read-outs stand apart in the source and are kept apart here.

Experiments:
[1] = molecular target: T1, RORγ (UniProt P51449); experiment: RORγ Gal4 Reporter Gene Assay in 293T cells (firefly and renilla luciferase); format: cell-based, human
T1 sequence (P51449 1-518): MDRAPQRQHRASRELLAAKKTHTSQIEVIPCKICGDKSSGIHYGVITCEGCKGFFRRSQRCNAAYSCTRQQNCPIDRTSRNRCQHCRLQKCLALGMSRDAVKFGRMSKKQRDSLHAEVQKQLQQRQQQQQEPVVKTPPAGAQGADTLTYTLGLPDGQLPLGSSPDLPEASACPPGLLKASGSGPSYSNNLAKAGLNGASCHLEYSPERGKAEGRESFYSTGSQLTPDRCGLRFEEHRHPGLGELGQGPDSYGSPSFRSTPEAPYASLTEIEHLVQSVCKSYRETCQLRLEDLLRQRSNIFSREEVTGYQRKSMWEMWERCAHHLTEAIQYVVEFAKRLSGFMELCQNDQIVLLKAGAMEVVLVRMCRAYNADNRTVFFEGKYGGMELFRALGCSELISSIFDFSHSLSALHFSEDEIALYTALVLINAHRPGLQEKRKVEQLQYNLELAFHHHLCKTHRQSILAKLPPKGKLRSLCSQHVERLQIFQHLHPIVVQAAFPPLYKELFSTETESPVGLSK

[2] = molecular target: T2, RORγ ligand binding domain (LBD) (Homo sapiens, UniProt P51449); experiment: TR-FRET Activity Assay (ligand sensing, RORγ-LBD / coactivator peptide interaction, LANCE); format: biochemical
T2 construct: made in house; host or cells: E. coli BL-21 (BL3), vector pDEST15
T2 sequence (P51449 269-508 limits assumed): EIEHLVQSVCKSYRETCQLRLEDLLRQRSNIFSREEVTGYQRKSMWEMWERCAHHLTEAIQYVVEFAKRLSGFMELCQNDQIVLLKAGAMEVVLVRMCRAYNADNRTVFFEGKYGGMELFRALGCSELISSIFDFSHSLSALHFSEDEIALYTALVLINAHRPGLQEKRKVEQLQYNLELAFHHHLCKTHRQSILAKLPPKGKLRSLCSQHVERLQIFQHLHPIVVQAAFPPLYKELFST

[3] = second value of the cell, Gal4 reporter gene assay in 293T cells, firefly luciferase
[4] = third value of the cell, Gal4 reporter gene assay in 293T cells, renilla normalised luciferase
[5] = first value of the cell FRET/FF/REN, TR-FRET activity assay, read-out: pIC50 (FRET) (converted)

Row | Structure (SMILES) | pIC50 (FF) [1, 3] | pIC50 (REN) [1, 4] | IC50 [2, 5] [nM] | pIC50 (FF) [1] | pIC50 (REN) [1] | IC50 [2] [nM]
1 | Cc1c(C(=O)NCC2(C)COC2)cc(-c2cc(C(C)(C)C)cc(C3(C)CC3)c2)n1CC1CCCCC1 [1/86] | 7.6 | 7.6 | 158 | – | – | –
2 | Cc1c(C(=O)NC2CCOCC2)cc(-c2ccc(S(=O)(=O)NC(C)(C)C)c(C(F)(F)F)c2)n1CC1CCC1 [17/215] | 7.5 | 7.3 | 316 | – | – | –
3 | Cc1c(C(=O)N[C@H]2C[C@H](C(=O)O)C2)cc(-c2cc(C3(C)CC3)nc(C(C)(C)C)n2)n1CC1CCCCC1 [17/311] | 7.0 | 7.2 | 794 | – | – | –
4 | Cc1c(C(=O)NC2COC2)cc(-c2cc(C(C)(C)C)cc(C(C)(C)C)c2)n1S(=O)(=O)N1CCCCC1 [Example 7, 5-(3,5-Di-tert-butylphenyl)-2-methyl-N-(oxetan-3-yl)-1-(piperidin-1-ylsulfonyl)-1H-pyrrole-3-carboxamide] | 6.8 | 6.9 | 316 | – | – | –
5 | Cc1c(C(=O)NCC2(O)CCOCC2)cc(-c2cc(C(C)(C)O)cc(C3(C)CC3)c2)n1CC1CCCCC1 [17/314] | 7.2 | 7.1 | 1000 | – | – | –
6 | Cc1c(S(=O)(=O)NC(C)(C)C)ccc(-c2cc(C(=O)NC3CCOCC3)c(C)n2CC2CCCCC2)c1Cl [17/274] | 7.9 | 7.9 | 251 | – | – | –
7 | Cc1c(C(=O)N2CC(O)C2)cc(-c2ccc(S(=O)(=O)NC(C)(C)C)c(C(C)(C)C)c2)n1CC1CCCCC1 [17/94] | 6.8 | 6.7 | 1260 | – | – | –
8 | Cc1c(C(=O)N[C@H]2C[C@H](C(=O)O)C2)cc(-c2cc(C(C)(C)O)cc(C(F)(F)F)c2)n1CC1CCCCC1 [17/307] | 6.2 | 6.0 | 3160 | – | – | –
9 | Cc1c(C(=O)NC2COC2)cc(-c2cc(C(F)(F)F)c(=O)n(CC(C)(C)C)c2)n1CC1CCCCC1 [9/14] | 6.3 | 6.2 | 7940 | – | – | –
10 | Cc1c(C(=O)NC2COC2)cc(-c2cc(C3(C)CC3)cc(C3(C)CC3)c2)n1CC1CCCCC1 [1/80] | 7.5 | 7.5 | 200 | – | – | –
11 | Cc1c(C(=O)NCCC(C)(C)C(=O)O)cc(-c2ccc(S(=O)(=O)NC(C)(C)C(F)(F)F)c(C(F)(F)F)c2)n1CC1CCCCC1 [17/161] | 7.6 | 7.6 | 631 | – | – | –
12 | Cc1c(C(=O)N[C@H]2C[C@H](C(=O)O)C2)cc(-c2ccc(S(=O)(=O)NC(C)(C)C)c(C(F)(F)F)c2)n1CC1CCCCC1 [17/220] | 6.6 | 6.6 | 316 | – | – | –
13 | Cc1c(C(=O)NCC(C)(C)O)cc(-c2ccc(S(=O)(=O)N(C)C(C)(C)C)c(C(C)(C)C)c2)n1CC1CCCCC1 [9/9] | 7.2 | 7.3 | 501 | – | – | –
14 | Cc1c(C(=O)NCC(C)(C)O)cc(-c2cc(C(=O)NC(C)(C)C)cc(C3(C)CC3)c2)n1CC1CCCCC1 [1/111] | – | – | – | 6.4/7.4/7.4 | 6.4/7.4/7.4 | 398
15 | Cc1c(C(=O)NCC2(C)COC2)cc(-c2cc(C(C)(C)C)c3c(c2)C2(CCO3)CC2)n1CC1CCCCC1 [1/101] | 7.2 | 7.2 | 251 | – | – | –
16 | Cc1cc(C(C)(C)C)cc(-c2cc(C(=O)N[C@H]3C[C@H](C(=O)O)C3)c(C)n2CC2CCCCC2)c1OC(F)F [17/194] | 6.4 | 6.5 | 12600 | – | – | –
17 | Cc1c(C(=O)NC2CCOCC2)cc(-c2cc(NCC(C)(C)C)nc(C(F)(F)F)c2)n1CC1CCCCC1 [17/159] | 6.8 | 6.9 | 1580 | – | – | –

Row | Structure (SMILES) | pIC50 (FF) [1, 3] | pIC50 (REN) [1, 4] | IC50 [2, 5] [nM] | pIC50 (FF) [1] | pIC50 (REN) [1] | IC50 [2] [nM]
18 | Cc1c(C(=O)NCCCCCO)cc(-c2cc(C(C)(C)C)c3c(c2)C2(CCO3)CC2)n1CC1CCCCC1 [1/40] | – | – | – | 6.6/7.5/7.6 | 6.6/7.5/7.6 | 251
19 | Cc1c(C(=O)NCCC(C)(C)C(N)=O)cc(-c2cc(C(C)(C)C)cc(C3(C)CC3)c2)n1CC1CCCCC1 [17/74] | – | – | – | 6.3/7.3/7.2 | 6.3/7.3/7.2 | 501
20 | Cc1c(C(=O)NC2CCOCC2)cc(-c2ccc(S(=O)(=O)NCC(F)(F)F)c(C(F)(F)F)c2)n1CC1CCCCC1 [17/140] | 8.0 | 8.1 | 200 | – | – | –
21 | CC(=NO)c1cc(-c2cc(C(=O)NC3CCOCC3)c(C)n2CC2CCCCC2)cc(C(C)(C)C)c1 [18/1] | 7.5 | 7.7 | 794 | – | – | –
22 | Cc1c(C(=O)NCC2CCOCC2)cc(-c2cc(C(C)(C)C)c3c(c2)C2(CCO3)CC2)n1CC1CCCCC1 [1/94] | 7.4 | 7.3 | 501 | – | – | –
23 | Cc1c(C(=O)NN2CCOCC2)cc(-c2cc(C(C)(C)C)c3c(c2)C2(CCO3)CC2)n1CC1CCCCC1 [17/9] | – | – | – | 6.2/6.8/6.8 | 6.2/6.8/6.8 | 631
24 | Cc1c(C(=O)N2CCC(C)(C(=O)O)CC2)cc(-c2cc(C(C)(C)C)c3c(c2)C2(CCO3)CC2)n1CC1CCCCC1 [17/54] | 7.1 | 7.2 | 1580 | – | – | –
25 | Cc1c(C(=O)NC2CCOCC2)cc(-c2ccc(S(=O)(=O)NC(C)(C)C)c(Cl)c2Cl)n1CC1CCCCC1 [17/276] | – | – | – | 6.8/7.9/8.0 | 6.8/7.9/8.0 | 158
26 | Cc1c(C(=O)N[C@H]2C[C@H](C(=O)O)C2)cc(-c2cc(C(F)(F)F)cc(C3(C)CC3)c2)n1CC1CCCCC1 [17/300] | 7.3 | 7.6 | 794 | – | – | –
27 | Cc1c(C(=O)NC2CCOCC2)cc(-c2ccc(S(=O)(=O)N3CCCC(C(F)(F)F)C3)c(C(C)(C)C)c2)n1CC1CCCCC1 (stereo not drawn) [17/102] | – | – | – | 6.6/6.8/6.9 | 6.6/6.8/6.9 | 251
28 | Cc1c(C(=O)NCC(C)(C)O)cc(-c2cccc3c(S(=O)(=O)NC(C)(C)C)cccc23)n1CC1CCCCC1 [17/76] | 6.9 | 6.9 | 2000 | – | – | –
29 | Cc1c(C(=O)NC2COC2)cc(-c2cc(C(C)(C)C)cc(C(C)(C)C)c2)n1CC1CCCCC1 [1/53] | – | – | – | 6.8/7.3/7.4 | 6.8/7.3/7.4 | 158
30 | Cc1c(C(=O)NC2CCOCC2)cc(-c2ccc(-c3cnc(NC(C)C)nc3)c(C(C)(C)C)c2)n1CC1CCCCC1 [26/4] | 6.6 | 6.8 | 3980 | – | – | –
31 | Cc1c(C(=O)NC2CCOCC2)cc(-c2ccc(S(=O)(=O)NC(C)(C)C)c(C(C)(C)C)c2)n1CC1CCCCC1 [1/131] | – | – | – | 6.3/7.8/7.8 | 6.3/7.8/7.8 | 501
32 | Cc1c(C(=O)NCC(C)(C)c2noc(=O)[nH]2)cc(-c2cc(C(C)(C)C)cc(C3(C)CC3)c2)n1CC1CCCCC1 [17/162] | 7.5 | 7.7 | 794 | – | – | –
33 | Cc1cc(S(=O)(=O)NC(C)(C)C)c(C(F)(F)F)cc1-c1cc(C(=O)NC2CCOCC2)c(C)n1CC1CCCCC1 [17/233] | – | – | – | 5.8/6.5/6.5 | 5.8/6.5/6.5 | 1580
34 | Cc1c(C(=O)NC2CCOCC2)cc(-c2ccc(S(=O)(=O)NC(C)(C)C)c(F)c2)n1CC1CCCCC1 [17/238] | 6.9 | 6.7 | 1000 | – | – | –
